Data taken from patent US8431614B2, “Loxoprofen derivative and pharmaceutical preparation containing the same” (LTT Bio-Pharma Co., Ltd., priority 2009, dated 2013).

Target: T1, COX-2 (Homo sapiens, UniProt P35354)
T1 construct: from tissue; host or cells: heparinised human whole blood from a healthy donor, stimulated with LPS
T1 sequence (P35354 18-604): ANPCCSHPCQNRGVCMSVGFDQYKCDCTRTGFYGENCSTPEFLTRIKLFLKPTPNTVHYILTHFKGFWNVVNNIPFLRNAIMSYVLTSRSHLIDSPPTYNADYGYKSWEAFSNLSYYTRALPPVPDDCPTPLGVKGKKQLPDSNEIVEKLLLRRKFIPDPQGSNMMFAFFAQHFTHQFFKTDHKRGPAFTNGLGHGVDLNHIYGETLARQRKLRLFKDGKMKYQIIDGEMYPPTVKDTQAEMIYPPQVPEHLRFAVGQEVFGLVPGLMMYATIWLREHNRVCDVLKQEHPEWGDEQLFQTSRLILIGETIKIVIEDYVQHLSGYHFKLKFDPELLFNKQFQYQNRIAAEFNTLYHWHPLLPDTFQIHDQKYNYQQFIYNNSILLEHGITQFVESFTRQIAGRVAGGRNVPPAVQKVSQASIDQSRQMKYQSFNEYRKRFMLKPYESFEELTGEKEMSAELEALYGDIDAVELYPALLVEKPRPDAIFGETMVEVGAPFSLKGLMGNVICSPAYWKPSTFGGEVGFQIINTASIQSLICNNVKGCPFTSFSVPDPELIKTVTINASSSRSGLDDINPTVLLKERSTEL
Assay: Human whole blood assay, in vitro COX-2 assay (LPS-induced PGE2 by EIA)
Type: cell-based
Details: ratio of IC50 COX-1 to IC50 COX-2
Experimental: This test was performed according to the method described in Inflamm. Res., 45: 68-74 (1996).
A person who had not taken NSAIDs for at least one week and was healthy on the day of blood collection was selected as a subject for blood collection.
Blood was collected in heparin-treated test tubes (Venojectll blood collection tubes, Terumo Corporation), and an inflammatory stimulant, lipopolysaccharide (LPS) (Sigma-Aldrich Japan Inc., #L2880 from E. coli055:B5: diluted in phosphate buffered saline (PBS) to a final concentration of 100 μg/mL) was added to the blood. The mixture was dispensed in 500 μL aliquots into tubes. 2 μL of the test compound (final concentration: 0.1 μM to 1000 μM) dissolved in an appropriate solvent (DMSO or MilliQ water) was added and incubated at 37° C. for 24 hours to induce COX-2.
After incubation, the samples were centrifuged at 12,000×g for 5 minutes to separate serum. 100 μL of the obtained serum was added to 400 μL of ethanol to remove blood protein, and the mixture was centrifuged again at 12,000×g for 5 minutes. PGE2 in the supernatant was quantified by using an enzyme immunoassay (EIA) kit [Cayman (Ann, Arbor, Mich., USA) #514040]. The protocol followed the protocol attached to the kit.

**Q.** Which “COX-2 S[…]. 1/COX. 2” value does the source give for `CC(C(=O)O)c1ccc(CC2CCCC2=O)cc1` (stereo not shown) [LOXONIN, loxoprofen] here?
**A.** 4.0
